Measurements taken from patent US6376472B1, “Compounds having antihypertensive, cardioprotective, anti-ischemic and antilipolytic properties” (Aventis Pharmaceuticals, Inc., priority 1996, dated 2002).

Assays:
lipolysis = conditions: selective agonists of the A2 receptor subtype; cited from earlier work
A1 and A2 receptors = conditions: selectivity of receptor affinity; cited from earlier work
A2 receptor = conditions: relative to NECA; cited from earlier work

Question: Which melting point does the source give for `COC[C@H]1C[C@@H](n2cnc3c(N[C@H]4CCN(c5ccc(C(F)(F)F)cn5)C4)ncnc32)[C@@H](O)[C@H]1O` here?
Answer: The melting point was 166 to 168 °C.

Question: Which antilipolytic activity (lipolysis) does the source give for `CCNC(=O)[C@H]1O[C@@H](n2cnc3c(N)nc(NCCc4ccc(CCC(=O)O)cc4)nc32)[C@H](O)[C@@H]1O` [CGS 21680] here?
Answer: The antilipolytic activity was “do not exhibit antilipolytic activity”.

Question: For `OC[C@H]1O[C@@H](n2cnc3c(NC4CCCC4)ncnc32)[C@H](O)[C@@H]1O` [CPA, Cyclopentyladenosine], which A2/A1 ratio (A1 and A2 receptors) is on record?
Answer: The A2/A1 ratio was 780.

Question: With `Nc1nc(Nc2ccccc2)nc2c1ncn2[C@@H]1O[C@H](CO)[C@@H](O)[C@H]1O` [CV-1808] as the compound, how does the “fold less potent than NECA in affinity for the A2 receptor” value (A2 receptor) read?
Answer: The value was 10 fold.

Question: What about the A2/A1 ratio (A1 and A2 receptors) of the same compound?
Answer: Its A2/A1 ratio is 0.19.
